Experimental data taken from ChEMBL document CHEMBL1641430, “Cholinergic and neuroprotective drugs for the treatment of Alzheimer and neuronal vascular diseases. II. Synthesis, biological assessment, and molecular modelling of new tacrine analogues from highly substituted 2-aminopyridine-3-carbonitriles” (Bioorg Med Chem, 2011).
Calls of active or inactive are those of the source. No cut-off for these calls is given here.

Key:
Cholinesterase = Cholinesterase (Equus caballus, UniProt P81908)
Description: Inhibition of horse serum BuChE by Ellman's method

Acetylcholinesterase [1] = molecular target: Acetylcholinesterase (Electrophorus electricus, UniProt O42275)
Description: Inhibition of Electrophorus electricus AChE by Ellman's method

Acetylcholinesterase [2] = molecular target: T1, Acetylcholinesterase (Bos taurus, UniProt P23795)
T1 sequence (P23795 whole entry): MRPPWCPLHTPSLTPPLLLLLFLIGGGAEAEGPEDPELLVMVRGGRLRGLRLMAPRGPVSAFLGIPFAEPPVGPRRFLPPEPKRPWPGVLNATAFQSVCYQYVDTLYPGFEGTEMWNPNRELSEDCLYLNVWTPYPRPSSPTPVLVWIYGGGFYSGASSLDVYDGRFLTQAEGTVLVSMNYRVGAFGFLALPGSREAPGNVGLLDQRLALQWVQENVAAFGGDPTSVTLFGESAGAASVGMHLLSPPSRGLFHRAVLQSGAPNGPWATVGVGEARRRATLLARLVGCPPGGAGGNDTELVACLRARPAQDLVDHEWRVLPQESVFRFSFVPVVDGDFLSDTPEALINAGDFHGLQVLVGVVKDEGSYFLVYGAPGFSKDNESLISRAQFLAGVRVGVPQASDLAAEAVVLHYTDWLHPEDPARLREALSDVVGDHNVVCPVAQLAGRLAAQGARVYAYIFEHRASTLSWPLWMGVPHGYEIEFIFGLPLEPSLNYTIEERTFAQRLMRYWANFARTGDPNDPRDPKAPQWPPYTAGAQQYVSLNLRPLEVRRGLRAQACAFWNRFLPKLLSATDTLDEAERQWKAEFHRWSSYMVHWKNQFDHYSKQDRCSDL
Description: Inhibition of bovine erythrocytes AChE by Ellman's method

SH-SY5Y [3] = assay: Neuroprotection against rotenone/oligomycin-A-indced human SH-SY5Y cell death assessed as protective effect at 1 uM after 2 hrs by MTT assay; type: functional
[4] = molecular target: Acetylcholinesterase (Homo sapiens) (UniProt P22303); assay: Antagonist activity at human nAChR in human SH-SY5Y cells assessed as inhibition of 70 mM K+ induced cytosolic Ca2+ signal at 0.3 to 100 uM; type: functional, cell-based
SH-SY5Y [5] = assay: Neuroprotection against okadaic acid-induced human SH-SY5Y cell death assessed as reduction in LDH release at 0.3 uM relative to control; type: functional; parameters: scale not given: the % may be the effect or the level left
SH-SY5Y [6] = assay: Neuroprotection against okadaic acid-induced human SH-SY5Y cell death assessed as reduction in LDH release at 0.1 to 1 uM relative to control; type: functional; parameters: scale not given: the % may be the effect or the level left
[7] = molecular target: Acetylcholinesterase (Homo sapiens) (UniProt P22303); assay: Antagonist activity at human nAChR in human SH-SY5Y cells assessed as inhibition of acetylcholine-induced cytosolic Ca2+ signal at 0.3 to 100 uM; type: functional, cell-based
SH-SY5Y [8] = assay: Neuroprotection against okadaic acid-induced human SH-SY5Y cell death assessed as reduction in cell death at 0.1 to 1 uM; type: functional, cell-based

Chain of Acetylcholinesterase (Electrophorus electricus, UniProt O42275) (O42275 whole entry): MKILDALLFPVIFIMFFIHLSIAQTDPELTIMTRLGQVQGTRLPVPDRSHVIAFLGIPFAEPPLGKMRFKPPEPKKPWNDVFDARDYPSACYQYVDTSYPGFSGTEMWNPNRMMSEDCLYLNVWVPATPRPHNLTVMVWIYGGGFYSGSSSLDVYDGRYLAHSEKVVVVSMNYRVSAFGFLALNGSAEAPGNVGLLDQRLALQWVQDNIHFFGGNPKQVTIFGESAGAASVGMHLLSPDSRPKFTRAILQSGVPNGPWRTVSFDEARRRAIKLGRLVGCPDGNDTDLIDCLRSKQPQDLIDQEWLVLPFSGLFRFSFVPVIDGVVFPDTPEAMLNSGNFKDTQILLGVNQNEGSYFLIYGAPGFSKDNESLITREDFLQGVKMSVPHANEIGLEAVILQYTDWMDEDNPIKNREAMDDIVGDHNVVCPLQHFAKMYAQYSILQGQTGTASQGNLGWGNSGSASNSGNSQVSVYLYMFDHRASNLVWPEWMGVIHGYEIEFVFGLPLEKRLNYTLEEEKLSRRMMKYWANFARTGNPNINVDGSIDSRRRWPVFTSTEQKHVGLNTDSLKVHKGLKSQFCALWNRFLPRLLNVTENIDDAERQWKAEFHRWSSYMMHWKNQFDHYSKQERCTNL
Chain of Cholinesterase (P81908 whole entry): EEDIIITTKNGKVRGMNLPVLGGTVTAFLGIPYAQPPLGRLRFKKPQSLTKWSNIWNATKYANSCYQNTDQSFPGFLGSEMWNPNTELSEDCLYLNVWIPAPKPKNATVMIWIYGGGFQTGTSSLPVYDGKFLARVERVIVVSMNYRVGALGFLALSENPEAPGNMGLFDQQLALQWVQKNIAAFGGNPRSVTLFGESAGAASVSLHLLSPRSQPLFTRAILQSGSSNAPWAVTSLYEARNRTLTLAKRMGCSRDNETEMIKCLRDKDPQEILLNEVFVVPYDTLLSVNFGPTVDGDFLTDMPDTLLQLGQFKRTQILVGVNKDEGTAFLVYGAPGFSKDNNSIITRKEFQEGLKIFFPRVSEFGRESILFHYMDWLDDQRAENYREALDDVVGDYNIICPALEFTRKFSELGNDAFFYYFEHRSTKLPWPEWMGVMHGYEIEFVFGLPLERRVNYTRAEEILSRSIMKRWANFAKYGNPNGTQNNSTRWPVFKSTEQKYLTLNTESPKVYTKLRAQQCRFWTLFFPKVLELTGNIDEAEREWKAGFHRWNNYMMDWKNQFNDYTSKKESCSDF
Chain of Acetylcholinesterase (Homo sapiens) (P22303 whole entry): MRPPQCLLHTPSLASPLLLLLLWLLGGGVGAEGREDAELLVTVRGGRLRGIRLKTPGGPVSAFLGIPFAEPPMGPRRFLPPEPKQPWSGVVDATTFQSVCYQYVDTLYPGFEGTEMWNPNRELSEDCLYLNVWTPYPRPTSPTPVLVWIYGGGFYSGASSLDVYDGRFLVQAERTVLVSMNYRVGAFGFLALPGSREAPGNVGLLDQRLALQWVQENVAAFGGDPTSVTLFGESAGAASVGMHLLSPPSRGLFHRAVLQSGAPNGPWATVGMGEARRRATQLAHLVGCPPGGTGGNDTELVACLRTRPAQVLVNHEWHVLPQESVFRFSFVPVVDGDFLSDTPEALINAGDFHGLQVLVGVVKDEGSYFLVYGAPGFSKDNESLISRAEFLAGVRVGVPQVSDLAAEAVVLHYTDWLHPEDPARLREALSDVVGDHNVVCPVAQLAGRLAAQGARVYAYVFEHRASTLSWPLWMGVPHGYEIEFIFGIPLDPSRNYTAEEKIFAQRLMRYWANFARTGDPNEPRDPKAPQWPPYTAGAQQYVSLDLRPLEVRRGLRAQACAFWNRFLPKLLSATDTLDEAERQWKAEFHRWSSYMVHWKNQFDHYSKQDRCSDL

Row | Structure (SMILES) | IC50 (Cholinesterase) | IC50 (Acetylcholinesterase [1]) | IC50 (Acetylcholinesterase [2]) | Activity (SH-SY5Y [3]) | inhibition [4] | Activity (SH-SY5Y [5]) | Activity (SH-SY5Y [6]) | inhibition [7] | Activity (SH-SY5Y [8])
1 | N#Cc1c(Cl)nc2nc3c(c(N)c2c1-c1ccccc1)CCCC3 | > 30 µM | > 30 µM | > 100 µM | 8% | – | – | – | – | –
2 | N#Cc1cc2c(N)c3c(nc2nc1N1CCCCC1)CCCC3 | 3.6 µM | 0.025 µM | 1 µM | 19% | – | – | – | – | –
3 | CN(C)c1nc2nc3c(c(N)c2cc1C#N)CCCC3 | 5.2 µM | 0.014 µM | 0.1 µM | 6% | – | – | – | – | –
4 | CC(=O)N[C@@H](CS)C(=O)O [ACETYLCYSTEINE] | – | – | – | 33% | – | – | – | – | –
5 | N#Cc1cc2c(N)c3c(nc2nc1N1CCCC1)CCCC3 | 5.6 µM | 0.043 µM | 0.16 µM | 29% | – | – | – | – | –
6 | N#Cc1cc2c(N)c3c(nc2nc1Cl)CCN(Cc1ccccc1)C3 | > 100 µM | 0.35 µM | > 100 µM | 20% | – | – | – | – | –
7 | C#CCNc1nc2nc3c(c(N)c2cc1C#N)CCCC3 | 2.6 µM | 0.03 µM | 1.53 µM | 20% | – | – | – | – | –
8 | N#Cc1cc2c(N)c3c(nc2nc1Cl)CCCC3 | > 30 µM | 5 µM | > 100 µM | 4% | – | – | – | – | –
9 | COc1nc2nc3c(c(N)c2c(-c2ccccc2)c1C#N)CCCC3 | 5.1 µM | 0.08 µM | 5 µM | 12% | – | – | – | – | –
10 | CN(C)c1nc2nc3c(c(N)c2c(-c2ccccc2)c1C#N)CCCC3 | 7.5 µM | 0.09 µM | 4.4 µM | 3% | – | – | – | – | –
11 | CCOc1nc2nc3c(c(N)c2cc1C#N)CCCC3 | > 30 µM | 0.05 µM | 1 µM | 29% | – | – | – | – | –
12 | COc1nc2nc3c(c(N)c2cc1C#N)CCCC3 | 9.6 µM | 0.06 µM | 1.6 µM | 23% | inactive | 65% | 49% | inactive | Active
13 | COc1nc2nc3c(c(N)c2cc1C#N)CN(Cc1ccccc1)CC3 | > 100 µM | 0.35 µM | 5 µM | 11% | – | – | – | – | –
